Patent US11702646B2, “Methods for modulating RNA splicing” (PTC THERAPEUTICS, INC., priority 2016, dated 2023)

Columns and labels:
[1] = system: GM04856 lymphocyte cells; experiment: Endpoint RT-PCR for iExon-containing spliced product in GM04856 lymphocyte cells; type: cell-based; conditions: 10 nM, 1 μM or 10 μM, ~20 h, FIGS. 2A-D and 3-6A
Procedure: Cell treatment: GM04856 lymphocyte cells were diluted in a medium composed of DMEM, 10% FBS and 1× Pen/Strep to a concentration of 2.5e5 cells/mL. 2 mL (500K cells) were seeded in 6-well plates and recovered for 4 h at 37° C., 5% CO2. Compound dilutions were prepared as 2× compound stock in medium (e.g. for final 100 nM, make a 200 nM stock). After 4 h recovery, 2 mL of the 2× compound stock were added to each well, resulting in 4 mL/well with 1× final compound concentration. The cells were incubated for ˜20 h at 37° C., 5% CO2. After incubation, the cells were pelleted for 5 min at 1000 rpm. The supernatant was vacuum-removed and the cells were resuspended in 350 μl of RLT buffer (w/10 μl/mL beta-mercapto-ethanol, RNeasy kit). Total RNA was isolated using the RNeasy Mini Kit from Qiagen according to the manufacturer's instructions. The concentration of the resulting total RNA was determined using Nanodrop and diluted with water to a final concentration of 25 ng/μL.
Endpoint PCR: 20 μL endpoint RT-PCR5 were set up in 96-well plates using the AgPath-ID One-Step RT-PCR Reagents (Applied Biosystems) according to the manufacturer. Each reaction contained 200 nM forward primer, 200 nM reverse primer, and 50 ng total RNA. […] 10 μL of each RT-PCR reactions were analyzed on 2% 48-well E-Gels (Invitrogen) (pre-run 1 min, run 14 min) and imaged using an BioRad Gel Doc EZ Imager. […]

[2] = system: RNA transcripts of genes having intronic REMS elements; experiment: Change in isoform abundance and iExon/exon inclusion (ΔPSI, Fisher's Exact Test) in the presence of compound; type: cell-based; conditions: doses ranging from 0.3 μM to 3 μM, statistically significant adjusted Fisher's Exact Test p value
Procedure: Techniques known to one skilled in the art may be used to determine the amount of an RNA transcript(s). In some embodiments, the amount of one, two, three or more RNA transcripts is measured using deep sequencing, such as ILLUMINA® RNASeq, ILLUMINA® next generation sequencing (NGS), ION TORRENT™ RNA next generation sequencing, 454™ pyrosequencing, or Sequencing by Oligo Ligation Detection (SOLID™). In other embodiments, the amount of multiple RNA transcripts is measured using an exon array, such as the GENECHIP® human exon array. In certain embodiments, the amount of one, two, three or more RNA transcripts is determined by RT-PCR. In other embodiments, the amount of one, two, three or more RNA transcripts is measured by RT-qPCR or digital color-coded barcode technology. Techniques for conducting these assays are known to one skilled in the art. […]
Where “U” represents the value for probability of iExon inclusion (a+b)/2/[(a+b)/2+c]^U in the absence of the compound; and, where “C” represents the value for probability of iExon inclusion (a+b)/2/[(a+b)/2+c]^C in the presence of the compound. The values for “a” and “b” represent the number of reads supporting inclusion of an iExon in an RNA transcript. In other words, the “a” value is derived from the amount of reads for a first intronic nucleotide sequence comprising, in 5′ to 3′ order: a first exon having a 5′ splice site operably linked and upstream from a first intronic nucleotide sequence comprising a first branch point further operably linked and upstream from a first intronic 3′ splice site (upstream of the nascent iExon). The “b” value is derived from the amount of reads for a second intronic nucleotide sequence comprising, in 5′ to 3′ order: an iREMS sequence operably linked downstream from the first intronic 3′ splice site and upstream from a second intronic nucleotide sequence comprising a second branch point further operably linked and upstream from a second intronic 3′ splice site of a second exon. The value for “c” represents the number of reads supporting exclusion of an iExon. […]

## CCc1nc(C)cn2nc(-c3cc(=O)n4cc(C5CCN(C)CC5)cc(C)c4n3)cc12 [Compound 774]
[1]
  PCR product containing the intronic-derived exon (endpoint RT-PCR, agarose gel): appearance of a slower migrating PCR product containing the intronic-derived exon
[2]; genes of Table 7
  effect on change in isoform abundance as a result of having intronic REMS elements: demonstrate an effect on change in isoform abundance
[2]; genes of Table 7a
  effect on inclusion of an iExon with a corresponding change in isoform abundance: demonstrate an effect on inclusion of an iExon with a corresponding change in isoform abundance
[2]; genes of Table 7b
  effect on inclusion of an exon with a corresponding change in isoform abundance: demonstrate an effect on inclusion of an exon with a corresponding change in isoform abundance
